Test results as given in patent publication US11440907B1 (Merck Patent GmbH, priority 2018, dated 2022).
Like-named read-outs stand apart in the source and are kept apart here.

Legend:
[1] = system: XBP1(u)-luciferase splicing reporter in HepG2 hepatoma cells; assay: HepG2 XBP1 reporter assay (XBP1(u)-Luc); type: cell-based; conditions: Homo sapiens, 6 hours after compound addition, Table 3, read-out: XBP1-luc HepG2 1 EC50
[2] = system: β-catenin-TCF-mediated reporter transcription activity in Colo 205 cells; assay: Colo 205 reporter assay (TCF/LEF promoter-driven firefly luciferase); type: cell-based; conditions: Colo 205 TCF/LEF luciferase reporter, 5 hours after compound addition, 384 well, read-out: Colo205 IC50
Excerpt: The compounds of the invention described herein were screened using the assay procedure for β-catenin-TCF-mediated reporter transcription activity described below.
Reporter cell lines were generated by stably transfecting cells of cancer cell lines (e.g., colon cancer) with a plasmid reporter construct (From SABiosciences, a QIAGEN company) that includes TCF/LEF promoter driving expression of the firefly luciferase gene. TCF/LEF reporter constructs were made in which TCF/LEF promoter, a promoter with optimal number of TCF/LEF binding sites designed by SABiosciences, was linked upstream of the firefly luciferase gene. This construct could also include a puromycin resistance gene as a selectable marker. This construct could also be used to stably transfect Colo 205 cells, a colon cancer cell line having a mutated APC gene that causes a constitutively active β-catenin. A control cell line was generated using another plasmid construct containing the luciferase gene under the control of a CMV basal promoter which is not activated by β-catenin.
Colo 205 Cultured cells with a stably transfected reporter construct were plated at approximately 10,000 cells per well into 384 well multi-well plates for twenty four hours. The testing compounds were then added to the wells in 2-fold serial dilutions using a twenty micromolar top concentration. A series of control wells for each cell type received only compound solvent. Five hours after the addition of compound, reporter activity for luciferase was assayed, by addition of the SteadyGlo luminescence reagent (Promega). The reporter luminescence activity was measured using Pherastar plate reader (BMG Labtech). Readings were normalized to DMSO only treated cells, and normalized activities were then used in the IC50 calculations. The Colo 205 reporter assay data are summarized in Table 3: A<0.3 μM; 0.3 μM≤B<1.0 μM; 1.0 μM≤C<5.0 μM; D≥5.0 μM.

Row | Structure (SMILES) | EC50 [1] | IC50 ([2]; Homo sapiens) | IC50 [2]
1 | Cc1cc(N2CCCCCC2c2ccccc2)nc(N)n1 (racemic) [I-4, (+/−)-4-methyl-6-(2-phenylazepan-1-yl)pyrimidin-2-amine] | 2000 to 5000 nM | 300 to 1000 nM | –
2 | Cc1cc(N2CCCCCC2c2ccccc2C)nc(N)n1 (racemic) [I-6, (+/−)-4-methyl-6-(2-(2-(methyl)phenyl)azepan-1-yl)pyrimidin-2-amine] | 2000 to 5000 nM | 300 to 1000 nM | –
3 | COc1ccc(C2CCCCCN2c2cc(C)nc(N)n2)cc1 (racemic) [I-23, (+/−)-4-[2-(4-methoxyphenyl)azepan-1-yl]-6-methyl-pyrimidin-2-amine] | ≥ 5000 nM | 300 to 1000 nM | –
4 | COc1ccc(OC)c(C2CCCCCN2c2cc(C)nc(N)n2)c1 (racemic) [I-25, (+/−)-4-(2-(2,5-dimethoxyphenyl)azepan-1-yl)-6-methylpyrimidin-2-amine] | 600 to 2000 nM | < 300 nM | –
5 | CCc1ccccc1C1CCCCCN1c1cc(C)nc(N)n1 (racemic) [I-45, (+/−)-4-(2-(2-ethylphenyl)azepan-1-yl)-6-methylpyrimidin-2-amine] | 600 to 2000 nM | 300 to 1000 nM | –
6 | COc1cccc(F)c1C1CCCCCN1c1cc(C)nc(N)n1 (racemic) [I-50, (+/−)-4-[2-(2-fluoro-6-methoxy-phenyl)azepan-1-yl]-6-methyl-pyrimidin-2-amine] | 600 to 2000 nM | 300 to 1000 nM | –
7 | CC(=O)Nc1cc(C2COCCCN2c2cc(C)nc(N)n2)c(Cl)cc1F (racemic) [I-85, N-[5-[4-(2-amino-6-methyl-pyrimidin-4-yl)-1,4-oxazepan-3-yl]-4-chloro-2-fluoro-phenyl]acetamide] | 600 to 2000 nM | 300 to 1000 nM | –
8 | Cc1cc(N2CCCOCC2c2ccc(N)cc2Cl)nc(N)n1 (racemic) [I-140, (+/−)-4-[3-(4-amino-2-chloro-phenyl)-1,4-oxazepan-4-yl]-6-methyl-pyrimidin-2-amine] | – | < 300 nM | –
9 | CC(=O)Nc1ccc(C2COCCCN2c2cc(C)nc(N)n2)c(Cl)c1 (racemic) [I-141, (+/−)-N-(4-(4-(2-amino-6-methylpyrimidin-4-yl)-1,4-oxazepan-3-yl)-3-chlorophenyl)acetamide] | – | < 300 nM | –
10 | Cc1cc(N2CCCOCC2c2cc(O)ccc2Cl)nc(N)n1 (racemic) [I-147, (+/−)-3-[4-(2-amino-6-methyl-pyrimidin-4-yl)-1,4-oxazepan-3-yl]-4-chloro-phenol] | – | < 300 nM | –
11 | Cc1cc(N2CCCOCC2c2ccc(C(=O)N3CCCC3)cc2Cl)nc(N)n1 (racemic) [I-151, (+/−)-(4-(4-(2-amino-6-methylpyrimidin-4-yl)-1,4-oxazepan-3-yl)-3-chlorophenyl)(pyrrolidin-1-yl)methanone] | – | 300 to 1000 nM | –
12 | Cc1cc(N2CCCOCC2c2ccc(C(=O)N(C)C3CCOCC3)cc2Cl)nc(N)n1 (racemic) [I-153, (+/−)-4-(4-(2-amino-6-methylpyrimidin-4-yl)-1,4-oxazepan-3-yl)-3-chloro-N-methyl-N-(tetrahydro-2H-pyran-4-yl)benzamide] | – | 300 to 1000 nM | –
13 | Cc1cc(N2CCCOCC2c2cc(-c3ccn[nH]3)ccc2Cl)nc(N)n1 (racemic) [I-157, (+/−)-4-(3-(2-chloro-5-(1H-pyrazol-5-yl)phenyl)-1,4-oxazepan-4-yl)-6-methyl-pyrimidin-2-amine] | – | 300 to 1000 nM | –
14 | Cc1cc(N2CCCOCC2c2cc(NC(=O)C(F)(F)F)ccc2Cl)nc(N)n1 (racemic) [I-159, (+/−)-N-[3-[4-(2-amino-6-methyl-pyrimidin-4-yl)-1,4-oxazepan-3-yl]-4-chloro-phenyl]-2,2,2-trifluoro-acetamide] | – | < 300 nM | –
15 | Cc1cc(N2CCCOC[C@@H]2c2cc(NC(=O)CCO)ccc2Cl)nc(N)n1 (racemic) [I-174, (+/−)-N-[3-[4-(2-amino-6-methyl-pyrimidin-4-yl)-1,4-oxazepan-3-yl]-4-chloro-phenyl]-3-hydroxy-propanamide] | 600 to 2000 nM | 300 to 1000 nM | –
16 | Cc1cc(N2CCCOCC2c2ccc(N3CCN(C)CC3)cc2Cl)nc(N)n1 (racemic) [I-225, (+/−)-4-[3-[2-chloro-4-(4-methylpiperazin-1-yl)phenyl]-1,4-oxazepan-4-yl]-6-methyl-pyrimidin-2-amine] | 600 to 2000 nM | 300 to 1000 nM | –
17 | Cc1cc(N2CCCOCC2c2ccc(N3CCCC3)cc2Cl)nc(N)n1 (racemic) [I-227, (+/−)-4-[3-(2-chloro-4-pyrrolidin-1-yl-phenyl)-1,4-oxazepan-4-yl]-6-methyl-pyrimidin-2-amine] | 600 to 2000 nM | 300 to 1000 nM | –
18 | Cc1cc(N2CCCOC[C@@H]2c2ccccc2Cl)nc(N)n1 (single isomer, unassigned) [I-31] | – | < 300 nM | –
19 | Cc1cc(N2CCCOC[C@@H]2c2cc(N)ccc2Cl)nc(N)n1 (single isomer, unassigned) [I-87] | – | < 300 nM | –
20 | Cc1cc(N2CCCOC[C@@H]2c2ccc(C#N)cc2Cl)nc(N)n1 (single isomer, unassigned) [I-97] | – | 300 to 1000 nM | –
21 | COc1cc(S(C)(=O)=O)ccc1[C@H]1CCCCCN1c1cc(C)nc(N)n1 (single isomer, unassigned) [I-99, 4-[2-(2-methoxy-4-methylsulfonyl-phenyl)azepan-1-yl]-6-methyl-pyrimidin-2-amine] | – | < 300 nM | –
22 | COc1ccc(OC)c([C@H]2COCCCN2c2cc(C)nc(N)n2)c1 (single isomer, unassigned) [I-101] | – | < 300 nM | –
23 | Cc1cc(N2CCCCC[C@@H]2c2cc(OC(C)C)ccc2Cl)nc(N)n1 (single isomer, unassigned) [I-108] | – | < 300 nM | –
24 | COc1ccc(O)cc1[C@H]1CCCCCN1c1cc(C)nc(N)n1 (single isomer, unassigned) [I-127] | – | < 300 nM | –

Row | Structure (SMILES) | EC50 [1] | IC50 ([2]; Homo sapiens) | IC50 [2]
25 | COc1ccc(Cl)c([C@H]2CCCCCN2c2cc(C)nc(N)n2)c1 (single isomer, unassigned) [I-135] | – | 300 to 1000 nM | –
26 | COc1ccc(Cl)c([C@H]2COCCCN2c2cc(C)nc(N)n2)c1 (single isomer, unassigned) [I-138] | – | < 300 nM | –
27 | Cc1cc(N2CCCOC[C@@H]2c2ccc(C(=O)N(C)C)cc2Cl)nc(N)n1 (single isomer, unassigned) [I-144] | – | 300 to 1000 nM | –
28 | Cc1cc(N2CCCOC[C@H]2c2cc(C(O)C(F)(F)F)ccc2Cl)nc(N)n1 (single isomer, unassigned) [I-146] | – | 300 to 1000 nM | –
29 | Cc1cc(N2CCCCCC2c2ccccc2F)nc(N)n1 (stereo not drawn) [I-36, 4-(2-(2-fluorophenyl)azepan-1-yl)-6-methylpyrimidin-2-amine] | – | 300 to 1000 nM | –
30 | Cc1cc(N2CCCOCC2c2cc([N+](=O)[O-])ccc2Cl)nc(N)n1 (stereo not drawn) [I-72, 4-(3-(2-chloro-5-nitrophenyl)-1,4-oxazepan-4-yl)-6-methylpyrimidin-2-amine] | – | 300 to 1000 nM | –
31 | CC(=O)Nc1ccc(Cl)c(C2COCCCN2c2cc(C)nc(N)n2)c1 (stereo not drawn) [I-84] | – | < 300 nM | –
32 | COCC(=O)Nc1ccc(Cl)c(C2COCCCN2c2cc(C)nc(N)n2)c1 (stereo not drawn) [I-90] | – | 300 to 1000 nM | –
33 | CNC(=O)c1ccc(C2COCCCN2c2cc(C)nc(N)n2)c(Cl)c1 (stereo not drawn) [I-106] | – | < 300 nM | –
34 | COc1ccc(O)cc1C1CCCCCN1c1cc(C)nc(N)n1 (stereo not drawn) [I-107, 3-[1-(2-amino-6-methyl-pyrimidin-4-yl)azepan-2-yl]-4-methoxy-phenol] | – | < 300 nM | –
35 | Cc1cc(N2CCCOCC2c2cc([S+](C)[O-])ccc2Cl)nc(N)n1 (stereo not drawn) [I-122] | – | 300 to 1000 nM | –
36 | Cc1cc(N2CCCOCC2c2cc([S+](C)[O-])ccc2Cl)nc(N)n1 (stereo not drawn) [I-123] | – | – | 300 to 1000 nM
37 | COc1ccc(Cl)cc1[C@H]1COCCCN1c1cc(C)nc(N)n1 [I-132, (S)-4-(3-(5-chloro-2-methoxyphenyl)-1,4-oxazepan-4-yl)-6-methylpyrimidin-2-amine] | – | 300 to 1000 nM | –
38 | CNC(=O)c1ccc(OC)c([C@H]2CCCCCN2c2cc(C)nc(N)n2)c1 [I-148, (R)-3-(1-(2-amino-6-methylpyrimidin-4-yl)azepan-2-yl)-4-methoxy-N-methylbenzamide] | – | < 300 nM | –
39 | Cc1cc(N2CCCOCC2c2cc(NC(=O)OC(C)(C)C)ccc2Cl)nc(N)n1 (stereo not drawn) [I-158] | – | 300 to 1000 nM | –
40 | COc1ccc(F)cc1C1COCCCN1c1cc(C)nc(N)n1 (stereo not drawn) [I-284] | – | 300 to 1000 nM | –
41 | COc1cc(F)c(F)cc1C1COCCCN1c1cc(C)nc(N)n1 (stereo not drawn) [I-286] | – | 300 to 1000 nM | –
42 | COC(=O)c1ccc(C2COCCCN2c2cc(C)nc(N)n2)c(OC)c1 (stereo not drawn) [I-290] | – | 300 to 1000 nM | –
43 | COc1ccc(Cl)cc1C1COCCCN1c1cc(C)nc(N)n1 (stereo not drawn) [I-291] | – | 300 to 1000 nM | –
44 | COC(=O)c1ccc(C2COCCCN2c2cc(C)nc(N)n2)c(Cl)c1 (stereo not drawn) [I-292] | – | 300 to 1000 nM | –
45 | Cc1cc(N2CCCOCC2c2ccc(C(=O)N(C)C)cc2Cl)nc(N)n1 (stereo not drawn) [I-293] | – | 300 to 1000 nM | –
46 | Cc1cc(Nc2ccc(Cl)c(C3COCCCN3c3cc(C)nc(N)n3)c2)nc(N)n1 (stereo not drawn) [I-294] | – | 300 to 1000 nM | –
47 | Cc1cc(N2CCC(C)OCC2c2ccccc2Cl)nc(N)n1 (stereo not drawn) [I-301] | – | < 300 nM | –
